What all share (type): functional
Common to all, as to details: time 7 day

Assay [1] concerns Mycobacterium tuberculosis. The assay is described as follows: Anti-mycobacterial activity against isoniazid, rifampicin, ethambutol and pyrazinamide-resistant Mycobacterium tuberculosis clinical isolate harbouring inhA/katG/rpoB H526D mutant assessed as bacterial growth inhibition incubated for 7 days by microplate alamar blue assay. (Alamar Blue is a resazurin reagent that responds to reducing activity.)

For assay [2], the system named is Mycobacterium tuberculosis. The assay is described as follows: Anti-mycobacterial activity against Isoniazid resistant Mycobacterium tuberculosis clinical isolate harbouring inhA mutant assessed as bacterial growth inhibition incubated for 7 days by microplate alamar blue assay.
For assay [3], the system named is Mycobacterium tuberculosis. The assay is described as follows: Anti-mycobacterial activity against Rifampicin resistant Mycobacterium tuberculosis clinical isolate harbouring rpoB S531L mutant assessed as bacterial growth inhibition incubated for 7 days by microplate alamar blue assay.
The test system of assay [4] is Mycobacterium tuberculosis. The assay is described as follows: Anti-mycobacterial activity against Isoniazid resistant Mycobacterium tuberculosis clinical isolate harbouring katG S315T mutant assessed as bacterial growth inhibition incubated for 7 days by microplate alamar blue assay.

Values after ≈ are worked out from the molar mass of the structure shown.

By MIC50 is commonly meant the lowest concentration that inhibits either 50% of growth or 50% of the strains tested, depending on the study. For orientation: MIC90 means an inhibitory concentration at the 90% level, which refers to growth in some studies and to a panel of isolates in others.

In the case of `Clc1ccccc1C(c1ccccc1)(c1ccccc1)n1ccnc1` [CLOTRIMAZOLE], the MIC50 in assay [1] stood at 5.07 µM (≈ 1.75 µg/mL); in assay [2] it was 0.17 µM (≈ 0.0586 µg/mL); in assay [3], 1.53 µM (≈ 0.528 µg/mL); in assay [4], 1.72 µM (≈ 0.593 µg/mL). The MIC90 turned out to be 6.25 µM (≈ 2.16 µg/mL) in assay [1], 0.78 µM (≈ 0.269 µg/mL) in assay [2], 3.12 µM (≈ 1.08 µg/mL) in assay [3] and 3.12 µM (≈ 1.08 µg/mL) in assay [4].

Regarding `NNC(=O)c1ccncc1` [ISONIAZID], the MIC50 was more than 100 µM in assay [1], 0.98 µM (≈ 0.134 µg/mL) in assay [2], 23.03 µM (≈ 3.16 µg/mL) in assay [3] and 11.06 µM (≈ 1.52 µg/mL) in assay [4]. Besides, the MIC90 in assay [1] is more than 100 µM; in assay [2] it was 1.56 µM (≈ 0.214 µg/mL); in assay [3], 25 µM (≈ 3.43 µg/mL); in assay [4], 12.5 µM (≈ 1.71 µg/mL).

Regarding `CC(=O)NC[C@H]1CN(c2ccc(N3CCOCC3)c(F)c2)C(=O)O1` [LINEZOLID], the MIC50 is 0.81 µM (≈ 0.273 µg/mL) in assay [1], 0.12 µM (≈ 0.0405 µg/mL) in assay [2], 0.24 µM (≈ 0.081 µg/mL) in assay [3] and 0.42 µM (≈ 0.142 µg/mL) in assay [4]. The MIC90 worked out at 1.56 µM (≈ 0.526 µg/mL) in assay [1], 0.39 µM (≈ 0.132 µg/mL) in assay [2], 0.78 µM (≈ 0.263 µg/mL) in assay [3] and 1.56 µM (≈ 0.526 µg/mL) in assay [4].

Regarding `Clc1ccc(COC(Cn2ccnc2)c2ccc(Cl)cc2Cl)c(Cl)c1` (stereo not given) [MICONAZOLE], the MIC50 is 4.42 µM (≈ 1.84 µg/mL) in assay [1], 0.28 µM (≈ 0.117 µg/mL) in assay [2], 2.74 µM (≈ 1.14 µg/mL) in assay [3] and 3.58 µM (≈ 1.49 µg/mL) in assay [4]. The MIC90 turned out to be 6.25 µM (≈ 2.6 µg/mL) in assay [1], 0.78 µM (≈ 0.325 µg/mL) in assay [2], 6.25 µM (≈ 2.6 µg/mL) in assay [3] and 6.25 µM (≈ 2.6 µg/mL) in assay [4].

Turning to `CO[C@H]1/C=C/O[C@@]2(C)Oc3c(C)c(O)c4c(O)c(c(/C=N/N5CCN(C)CC5)c(O)c4c3C2=O)NC(=O)/C(C)=C\C=C\[C@H](C)[C@H](O)[C@@H](C)[C@@H](O)[C@@H](C)[C@H](OC(C)=O)[C@@H]1C` [RIFAMPIN], the MIC50 in assay [1] is more than 100 µM; in assay [2], less than 0.04 µM; in assay [3], 28.15 µM (≈ 23.2 µg/mL); in assay [4], less than 0.04 µM. Besides, the MIC90 was more than 100 µM in assay [1], less than 0.04 µM in assay [2], 50 µM (≈ 41.1 µg/mL) in assay [3] and less than 0.04 µM in assay [4].

The record behind these values is ChEMBL document CHEMBL5390314, “Repurposing Azoles to Resolve Serotogenic Toxicity Associated with Linezolid to Combat Multidrug-Resistant Tuberculosis” (ACS Med Chem Lett, 2023).
